Patent publication US9884828B2, “Substituted cinnolines as inhibitors of LRRK2 kinase activity” (Imago Pharmaceuticals, Inc., priority 2011, dated 2018)

Molecular target: recombinant GST-LRRK2 (wild-type) (Homo sapiens (Human), UniProt Q5S007)
Assay: LRRK2 TR-FRET peptide assay (in vitro kinase activity), wild-type
Assay type: biochemical
Conditions: 100 μM ATP, 100 nM biotin-LRRKtide substrate, 10 nM kinase, 60 minutes at room temperature
Procedure: Compounds as described herein (compounds of Formula I, e.g., compounds of the above Examples) are tested for their in vitro kinase activities using various LRRK2 (including LRRK2 G2019S mutant) assays. […] Serially diluted compounds (1% DMSO as co-solvent) were pre-incubated with recombinant GST-LRRK2 (wild-type, or G2019S mutant, Invitrogen) for 15 minutes at room temperature in 384-well Corning black plates. […] The inhibition of each well was calculated using the control and background readings for that plate. IC50 values were determined from dose-response curves using eight concentrations from the serial dilution of the test compounds.

recombinant GST-LRRK2 (wild-type), sequence (Q5S007 whole entry): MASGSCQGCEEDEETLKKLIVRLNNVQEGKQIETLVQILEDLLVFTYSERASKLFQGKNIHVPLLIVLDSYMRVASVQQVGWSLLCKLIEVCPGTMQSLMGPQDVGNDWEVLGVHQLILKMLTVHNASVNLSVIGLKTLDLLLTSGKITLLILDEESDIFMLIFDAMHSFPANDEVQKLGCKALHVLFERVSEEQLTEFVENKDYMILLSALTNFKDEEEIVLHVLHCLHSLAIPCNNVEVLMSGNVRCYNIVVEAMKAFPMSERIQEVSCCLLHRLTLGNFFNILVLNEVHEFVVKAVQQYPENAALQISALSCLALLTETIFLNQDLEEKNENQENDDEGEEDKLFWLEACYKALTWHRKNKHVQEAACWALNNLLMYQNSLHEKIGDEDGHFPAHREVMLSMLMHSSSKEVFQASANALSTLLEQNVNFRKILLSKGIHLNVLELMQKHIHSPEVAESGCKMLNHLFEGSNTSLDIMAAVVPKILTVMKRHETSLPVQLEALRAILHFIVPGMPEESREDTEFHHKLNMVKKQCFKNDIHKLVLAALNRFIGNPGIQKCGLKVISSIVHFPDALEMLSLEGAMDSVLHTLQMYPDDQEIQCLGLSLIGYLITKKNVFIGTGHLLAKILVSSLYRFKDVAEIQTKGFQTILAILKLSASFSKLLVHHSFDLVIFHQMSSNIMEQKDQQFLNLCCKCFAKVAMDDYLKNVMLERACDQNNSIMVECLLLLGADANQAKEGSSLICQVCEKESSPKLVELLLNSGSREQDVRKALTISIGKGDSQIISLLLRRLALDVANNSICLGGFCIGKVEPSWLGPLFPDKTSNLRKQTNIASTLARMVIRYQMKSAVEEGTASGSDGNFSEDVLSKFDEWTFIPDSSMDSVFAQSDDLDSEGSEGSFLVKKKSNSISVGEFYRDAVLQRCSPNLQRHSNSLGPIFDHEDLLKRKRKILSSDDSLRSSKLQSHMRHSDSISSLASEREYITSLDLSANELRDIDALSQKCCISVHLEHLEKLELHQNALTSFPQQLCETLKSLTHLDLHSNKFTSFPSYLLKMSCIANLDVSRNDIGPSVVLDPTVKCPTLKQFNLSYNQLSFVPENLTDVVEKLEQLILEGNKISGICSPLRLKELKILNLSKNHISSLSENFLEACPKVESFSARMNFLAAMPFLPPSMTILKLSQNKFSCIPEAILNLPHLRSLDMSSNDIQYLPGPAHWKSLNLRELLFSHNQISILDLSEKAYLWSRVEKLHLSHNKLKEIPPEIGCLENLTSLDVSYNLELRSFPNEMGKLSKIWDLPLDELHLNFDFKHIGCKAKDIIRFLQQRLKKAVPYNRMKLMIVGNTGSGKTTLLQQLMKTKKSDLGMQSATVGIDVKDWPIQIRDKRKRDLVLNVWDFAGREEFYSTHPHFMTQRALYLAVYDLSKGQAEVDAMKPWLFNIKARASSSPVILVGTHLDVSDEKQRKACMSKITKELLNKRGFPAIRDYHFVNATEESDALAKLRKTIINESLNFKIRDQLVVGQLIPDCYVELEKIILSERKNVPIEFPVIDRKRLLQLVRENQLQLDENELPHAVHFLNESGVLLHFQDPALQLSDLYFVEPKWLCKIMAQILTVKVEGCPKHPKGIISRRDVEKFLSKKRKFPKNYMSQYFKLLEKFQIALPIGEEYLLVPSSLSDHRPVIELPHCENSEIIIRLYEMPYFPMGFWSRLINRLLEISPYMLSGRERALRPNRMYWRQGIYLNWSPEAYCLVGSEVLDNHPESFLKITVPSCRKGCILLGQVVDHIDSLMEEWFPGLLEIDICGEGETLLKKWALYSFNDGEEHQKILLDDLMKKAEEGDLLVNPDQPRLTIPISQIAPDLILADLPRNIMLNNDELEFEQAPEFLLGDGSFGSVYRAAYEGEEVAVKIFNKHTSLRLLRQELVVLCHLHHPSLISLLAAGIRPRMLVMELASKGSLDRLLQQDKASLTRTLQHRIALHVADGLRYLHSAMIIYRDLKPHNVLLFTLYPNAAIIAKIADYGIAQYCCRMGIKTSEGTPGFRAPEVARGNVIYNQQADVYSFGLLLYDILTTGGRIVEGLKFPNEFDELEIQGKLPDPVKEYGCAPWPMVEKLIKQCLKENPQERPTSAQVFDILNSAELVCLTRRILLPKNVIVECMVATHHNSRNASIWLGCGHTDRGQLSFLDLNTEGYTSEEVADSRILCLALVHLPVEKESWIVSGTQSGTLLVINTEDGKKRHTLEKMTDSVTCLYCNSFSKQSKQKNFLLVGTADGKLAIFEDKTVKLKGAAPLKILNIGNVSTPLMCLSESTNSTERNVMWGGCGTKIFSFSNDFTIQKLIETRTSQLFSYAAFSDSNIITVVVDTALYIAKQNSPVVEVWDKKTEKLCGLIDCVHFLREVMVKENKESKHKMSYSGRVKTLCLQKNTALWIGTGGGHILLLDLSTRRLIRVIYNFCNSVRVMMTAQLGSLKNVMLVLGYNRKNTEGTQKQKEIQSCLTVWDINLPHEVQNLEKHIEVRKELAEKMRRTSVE

Structure (SMILES)	IC50
C[C@@H](Nc1c(C(N)=O)nnc2cc(-c3ccc4c(c3)CC(=O)N4)ccc12)C1CC1 [Compound 2-106, (R)-4-(1-cyclopropylethylamino)-7-(2-oxoindolin-5-yl)cinnoline-3-carboxamide]	11 nM
COc1ccc(C(=O)N(C)C)cc1-c1ccc2c(N[C@H](C)C3CC3)c(C(N)=O)nnc2c1 [Compound 2-107, (R)-4-(1-cyclopropylethylamino)-7-(5-(dimethylcarbamoyl)-2-methoxyphenyl)cinnoline-3-carboxamide]	48 nM
C[C@@H](Nc1c(C(N)=O)nnc2cc(-c3ccccc3OC(F)(F)F)ccc12)C1CC1 [Compound 2-108, (R)-4-(1-cyclopropylethylamino)-7-(2-(trifluoromethoxy)phenyl)cinnoline-3-carboxamide]	4300 nM
C[C@@H](Nc1c(C(N)=O)nnc2cc(-c3ccccc3)ccc12)C1CC1 [Compound 2-110, (R)-4-(1-cyclopropylethylamino)-7-phenylcinnoline-3-carboxamide]	10 nM
C[C@@H](Nc1c(C(N)=O)nnc2cc(-c3ccc(=O)n(C)c3)ccc12)C1CC1 [Compound 2-112, (R)-4-(1-cyclopropylethylamino)-7-(1-methyl-6-oxo-1,6-dihydropyridin-3-yl)cinnoline-3-carboxamide]	< 6 nM
C[C@@H](Nc1c(C(N)=O)nnc2cc(-c3cccc(OCC4CC4)c3)ccc12)C1CC1 [Compound 2-113, (R)-4-(1-cyclopropylethylamino)-7-(3-(cyclopropylmethoxy)phenyl)cinnoline-3-carboxamide]	51 nM
C[C@@H](Nc1c(C(N)=O)nnc2cc(-c3ccc(C(=O)N(C)C)cc3)ccc12)C1CC1 [Compound 2-114, (R)-4-(1-cyclopropylethylamino)-7-(4-(dimethylcarbamoyl)phenyl)cinnoline-3-carboxamide]	0.5 nM
COc1ccc(S(C)(=O)=O)cc1-c1ccc2c(N[C@H](C)C3CC3)c(C(N)=O)nnc2c1 [Compound 2-115, (R)-4-(1-cyclopropylethylamino)-7-(2-methoxy-5-(methylsulfonyl)phenyl)cinnoline-3-carboxamide]	50 nM
C[C@@H](Nc1c(C(N)=O)nnc2cc(-c3ccc(N4CCOCC4=O)cc3)ccc12)C1CC1 [Compound 2-116, (R)-4-(1-cyclopropylethylamino)-7-(4-(3-oxomorpholino)phenyl)cinnoline-3-carboxamide]	10 nM
C[C@@H](Nc1c(C(N)=O)nnc2cc(-c3ccccc3Cl)ccc12)C1CC1 [Compound 2-117, (R)-7-(2-chlorophenyl)-4-(1-cyclopropylethylamino)cinnoline-3-carboxamide]	460 nM
C[C@@H](Nc1c(C(N)=O)nnc2cc(-c3cccc4c3CC(=O)N4)ccc12)C1CC1 [Compound 2-119, (R)-4-(1-cyclopropylethylamino)-7-(2-oxoindolin-4-yl)cinnoline-3-carboxamide]	18 nM
C[C@@H](Nc1c(C(N)=O)nnc2cc(-c3cccc4c3NC(=O)C4)ccc12)C1CC1 [Compound 2-121, (R)-4-(1-cyclopropylethylamino)-7-(2-oxoindolin-7-yl)cinnoline-3-carboxamide]	2 nM
C[C@@H](Nc1c(C(N)=O)nnc2cc(-c3ccn(C)c(=O)c3)ccc12)C1CC1 [Compound 2-122, (R)-4-(1-cyclopropylethylamino)-7-(1-methyl-2-oxo-1,2-dihydropyridin-4-yl)cinnoline-3-carboxamide]	8 nM
CC(C)Nc1c(C(N)=O)nnc2ccc(-c3ccccc3)cc12 [Compound 2-124, 4-(isopropylamino)-6-phenylcinnoline-3-carboxamide]	630 nM
CC(C)Nc1c(C(N)=O)nnc2ccc(-c3ccc(S(C)(=O)=O)cc3)cc12 [Compound 2-125, 4-(isopropylamino)-6-(4-(methylsulfonyl)phenyl)cinnoline-3-carboxamide]	2900 nM
CC(C)Nc1c(C(N)=O)nnc2ccc(-c3ccncc3)cc12 [Compound 2-126, 4-(isopropylamino)-6-(pyridin-4-yl)cinnoline-3-carboxamide]	30 nM
CC(C)Nc1c(C#N)nnc2ccc(-c3cn[nH]c3)cc12 [Compound 2-128, 4-(isopropylamino)-6-(1H-pyrazol-4-yl)cinnoline-3-carbonitrile]	120 nM
CC(C)Nc1c(C(N)=O)nnc2ccc(-c3nccs3)cc12 [Compound 2-130, 4-(isopropylamino)-6-(thiazol-2-yl)cinnoline-3-carboxamide]	570 nM
CC(C)Nc1c(C(N)=O)nnc2ccc(-c3cncs3)cc12 [Compound 2-131, 4-(isopropylamino)-6-(thiazol-5-yl)cinnoline-3-carboxamide]	110 nM
NC(=O)c1nnc2cc(-c3ccncc3)ccc2c1NCCCO [Compound 2-136, 4-(3-hydroxypropylamino)-7-(pyridin-4-yl)cinnoline-3-carboxamide]	120 nM
COc1cc(Br)ccc1-c1ccc(OC)c(-c2ccc3c(N[C@H](C)C4CC4)c(C(N)=O)nnc3c2)c1 [Compound 2-203, (R)-7-(4′-bromo-2′,4-dimethoxybiphenyl-3-yl)-4-(1-cyclopropylethylamino)cinnoline-3-carboxamide]	8700 nM
CCC(C)Sc1c(C(N)=O)nnc2cc(-c3ccc(S(C)(=O)=O)cc3)ccc12 (stereo not shown) [Compound 2-243, 4-(sec-butylthio)-7-(4-(methylsulfonyl)phenyl)cinnoline-3-carboxamide]	12000 nM
CC(C)Nc1c(I)nnc2cc(-c3ccc(S(C)(=O)=O)cc3)ccc12 [Compound 3-68, 3-iodo-N-isopropyl-7-(4-(methylsulfonyl)phenyl)cinnolin-4-amine]	950 nM
CC(C)Nc1c(-c2cccnc2)nnc2cc(-c3ccc(S(C)(=O)=O)cc3)ccc12 [Compound 3-72, N-isopropyl-7-(4-(methylsulfonyl)phenyl)-3-(pyridin-3-yl)cinnolin-4-amine]	13000 nM
CC(C)Nc1c(-c2nccc(=O)[nH]2)nnc2cc(-c3ccc(S(C)(=O)=O)cc3)ccc12 [Compound 3-187, 2-(4-(isopropylamino)-7-(4-(methylsulfonyl)phenyl)cinnolin-3-yl)pyrimidin-4(3H)-one]	280 nM
CC(C)Nc1c(C(N)=O)nnc2cc(Oc3ccccc3)ccc12 [Compound 4-74, 4-(isopropylamino)-7-phenoxycinnoline-3-carboxamide]	490 nM
CC(C)Nc1c(C(N)=O)nnc2cc(Sc3ccccc3)ccc12 [Compound 4-76, 4-(isopropylamino)-7-(phenylthio)cinnoline-3-carboxamide]	560 nM

Continued, values first:

IC50	Structure (SMILES)
710 nM	COc1ccc(Br)cc1-c1ccc2c(N[C@H](C)C3CC3)c(C(N)=O)nnc2c1 [Compound 2-109, (R)-7-(5-bromo-2-methoxyphenyl)-4-(1-cyclopropylethylamino)cinnoline-3-carboxamide]
1 nM	C[C@@H](Nc1c(C(N)=O)nnc2cc(-c3cccc(S(C)(=O)=O)c3)ccc12)C1CC1 [Compound 2-111, (R)-4-(1-cyclopropylethylamino)-7-(3-(methylsulfonyl)phenyl)cinnoline-3-carboxamide]
10 nM	COc1cc(C(=O)N(C)C)ccc1-c1ccc2c(N[C@H](C)C3CC3)c(C(N)=O)nnc2c1 [Compound 2-118, (R)-4-(1-cyclopropylethylamino)-7-(4-(dimethylcarbamoyl)-2-methoxyphenyl)cinnoline-3-carboxamide]
1 nM	C[C@@H](Nc1c(C(N)=O)nnc2cc(-c3ccc4c(c3)NC(=O)C4)ccc12)C1CC1 [Compound 2-120, (R)-4-(1-cyclopropylethylamino)-7-(2-oxoindolin-6-yl)cinnoline-3-carboxamide]
430 nM	C[C@@H](Nc1c(C(N)=O)nnc2cc(-c3ccccc3S(C)(=O)=O)ccc12)C1CC1 [Compound 2-123, (R)-4-(1-cyclopropylethylamino)-7-(2-(methylsulfonyl)phenyl)cinnoline-3-carboxamide]
< 6 nM	CC(C)Nc1c(C(N)=O)nnc2ccc(-c3cn[nH]c3)cc12 [Compound 2-127, 4-(isopropylamino)-6-(1H-pyrazol-4-yl)cinnoline-3-carboxamide]
380 nM	CC(C)Nc1c(C(N)=O)nnc2ccc(-c3cnn(C)c3)cc12 [Compound 2-129, 4-(isopropylamino)-6-(1-methyl-1H-pyrazol-4-yl)cinnoline-3-carboxamide]
26 nM	CCC(CC)Nc1c(C(N)=O)nnc2cc(-c3ccncc3)ccc12 [Compound 2-134, 4-(pentan-3-ylamino)-7-(pyridin-4-yl)cinnoline-3-carboxamide]
150 nM	NC(=O)c1nnc2cc(-c3ccncc3)ccc2c1NCCO [Compound 2-137, 4-(2-hydroxyethylamino)-7-(pyridin-4-yl)cinnoline-3-carboxamide]
> 100000 nM	CC(C)Nc1c(-c2cscn2)nnc2cc(-c3ccc(S(C)(=O)=O)cc3)ccc12 [Compound 3-70, N-isopropyl-7-(4-(methylsulfonyl)phenyl)-3-(thiazol-4-yl)cinnolin-4-amine]
> 100000 nM	CC(C)Nc1c(-c2ncco2)nnc2cc(-c3ccc(S(C)(=O)=O)cc3)ccc12 [Compound 3-71, N-isopropyl-7-(4-(methylsulfonyl)phenyl)-3-(oxazol-2-yl)cinnolin-4-amine]
1600 nM	CC(C)Nc1c(Cl)nnc2cc(-c3ccc(S(C)(=O)=O)cc3)ccc12 [Compound 3-84, 3-chloro-N-isopropyl-7-(4-(methylsulfonyl)phenyl) cinnolin-4-amine]
72 nM	CC(C)Nc1c(C(N)=O)nnc2cc(Nc3ccccc3)ccc12 [Compound 4-78, 4-(isopropylamino)-7-(phenylamino)cinnoline-3-carboxamide]
